Experiments:
Assay type in all cases: in vivo
[1] = system: Amaranthus viridis (green amaranthus); assay: Test Example-2: herbicidal effect by a soil treatment before weeds are generated under upland field conditions; settings: application amount 500 g a.i/ha, soil spray treatment before weeds are generated, about 21 days after the treatment, score 0 to 5
Source text: (§1) Using the formulation prepared according to the methods described above, the herbicidal effect of the bicyclic pyrazolinone derivative of the invention according to the methods shown in Test Examples below was examined. The herbicidal effect with respect to the test weeds or the phytotoxicity with respect to the test crops was examined according to the following criteria, and evaluated in six stage scores of 0 to 5. A vat having an area of 81 cm^2 and a depth of 3.5 cm was filled with upland soil, then, seeds of Amaranthus viridis (green amaranthus), Chenopodium album (common lambsquarters), and corn were seeded thereto, and the seeds were covered with soil of about 0.5 cm. Next day, a wettable powder or an emulsifiable concentrate of the compound of the present invention prepared according to Formulation Example was diluted, and a spray treatment was uniformly performed on the covered oil so as to be a predetermined dosage. The herbicidal effect with respect to the test weeds and the phytotoxicity with respect to corn about 21 days after the treatment were evaluated according to the evaluation criteria in six stages of 0 to 5 described above.

[2] = system: Chenopodium album (common lambsquarters); assay: as above; settings: application amount 500 g a.i/ha, soil spray treatment before weeds are generated, about 21 days after the treatment, score 0 to 5
Source text: as §1

corn [3] = assay: Test Example-2: phytotoxicity by a soil treatment before weeds are generated under upland field conditions; settings: application amount 500 g a.i/ha, soil spray treatment before weeds are generated, about 21 days after the treatment, score 0 to 5
Source text: as §1

[4] = system: Abutilon theophrasti (velvetleaf); assay: Test Example-4: herbicidal effect by a foliage treatment after weeds are generated under upland field conditions; settings: 500 g a.i/ha, foliage treatment after emergence, about 14 days after treatment, score 0-5
Procedure, shortened: (§2)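 Sown seeds, under about 0.5 cm of soil cover in upland soil, grew for 14 days before compound application. A wettable powder or emulsifiable concentrate, diluted to a predetermined dosage, was sprayed over foliage in 4000 L/ha water, with scoring on a 0–5 scale after roughly 14 days.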

[5] = system: Amaranthus viridis (green amaranthus); assay: as above; settings: 500 g a.i/ha, foliage treatment after emergence, about 14 days after treatment, score 0-5
Procedure, shortened: as §2

[6] = system: Chenopodium album (common lambsquarters); assay: as above; settings: 500 g a.i/ha, foliage treatment after emergence, about 14 days after treatment, score 0-5
Procedure, shortened: as §2

corn [7] = assay: Test Example-4: phytotoxicity by a foliage treatment after weeds are generated under upland field conditions; settings: 500 g a.i/ha, foliage treatment after emergence, about 14 days after treatment, score 0-5
Procedure, shortened: as §2

[8] = system: Cyperus difformis (smallflower umbrella plant); assay: Test Example-1: herbicidal effect by a treatment before weeds are generated under submerged conditions; settings: 500 g a.i/ha, pre-emergence treatment, about 15 days after treatment, score 0-5
Procedure, shortened: (§3)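 Treatment is made before weed emergence: seeds sit in puddled, submerged paddy soil and receive the diluted wettable powder or emulsifiable concentrate into the water at a fixed dosage. Rating on a 0–5 scale follows after around 15 days.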

[9] = system: Echinochloa oryzicola (barnyard grass); assay: as above; settings: 500 g a.i/ha, pre-emergence treatment, about 15 days after treatment, score 0-5
Procedure, shortened: as §3

[10] = system: Eleocharis acicularis (needle spikerush); assay: as above; settings: 500 g a.i/ha, pre-emergence treatment, about 15 days after treatment, score 0-5
Procedure, shortened: as §3

[11] = system: Monochoria vaginalis (monochoria); assay: as above; settings: 500 g a.i/ha, pre-emergence treatment, about 15 days after treatment, score 0-5
Procedure, shortened: as §3

[12] = system: Scirpus juncoides (bulrush); assay: as above; settings: 500 g a.i/ha, pre-emergence treatment, about 15 days after treatment, score 0-5
Procedure, shortened: as §3

[13] = system: other annual broad leaf weeds (Lindernia procumbens, Rotala indica, Elatine triandra); assay: as above; settings: 500 g a.i/ha, pre-emergence treatment, about 15 days after treatment, score 0-5
Procedure, shortened: as §3

CS(=O)(=O)Nc1cc(-c2c(Cl)n3n(c2=O)CCCC3)c(F)cc1Cl [Example 5-35]
Herbicidal effect Amaranthus viridis [1]: 5 (Herbicidal effect/phytotoxicity was 90% or greater)
Herbicidal effect Chenopodium album [2]: 5 (Herbicidal effect/phytotoxicity was 90% or greater)
Phytotoxicity Corn (corn [3]): 0 (Herbicidal effect/phytotoxicity was 0% to 10%)
Herbicidal effect Abutilon theophrast [4]: 5 (Herbicidal effect/phytotoxicity was 90% or greater)
Herbicidal effect Amaranthus viridis [5]: 5 (Herbicidal effect/phytotoxicity was 90% or greater)
Herbicidal effect Chenopodium album [6]: 5 (Herbicidal effect/phytotoxicity was 90% or greater)
Phytotoxicity Corn (corn [7]): 0 (Herbicidal effect/phytotoxicity was 0% to 10%)

C#CCOc1cc(-c2c(Cl)n3n(c2=O)CCCCC3)c(F)cc1F [Example 1-367]
Herbicidal effect Cyperus difformis [8]: 5 (Herbicidal effect/phytotoxicity was 90% or greater)
Herbicidal effect Echinochloa oryzicola [9]: 5 (Herbicidal effect/phytotoxicity was 90% or greater)
Herbicidal effect Eleocharis acicularis [10]: 5 (Herbicidal effect/phytotoxicity was 90% or greater)
Herbicidal effect Monochoria vaginalis [11]: 5 (Herbicidal effect/phytotoxicity was 90% or greater)
Herbicidal effect Scirpus juncoides [12]: 5 (Herbicidal effect/phytotoxicity was 90% or greater)
Herbicidal effect Broadleaf weed [13]: 5 (Herbicidal effect/phytotoxicity was 90% or greater)
Herbicidal effect Amaranthus viridis [1]: 5 (Herbicidal effect/phytotoxicity was 90% or greater)
Herbicidal effect Chenopodium album [2]: 5 (Herbicidal effect/phytotoxicity was 90% or greater)
Phytotoxicity Corn (corn [3]): 0 (Herbicidal effect/phytotoxicity was 0% to 10%)

Cc1ccc(Oc2cc(-c3c(Cl)n4n(c3=O)CCCC4)c(F)cc2Cl)c(O)c1 [Compound 3-40]
Herbicidal effect Amaranthus viridis [1]: 5 (Herbicidal effect/phytotoxicity was 90% or greater)
Herbicidal effect Chenopodium album [2]: 5 (Herbicidal effect/phytotoxicity was 90% or greater)
Phytotoxicity Corn (corn [3]): 0 (Herbicidal effect/phytotoxicity was 0% to 10%)

CCOC(=O)C(OCC)Oc1ccccc1Oc1cc(-c2c(Cl)n3n(c2=O)CCCC3)c(F)cc1Cl (centres unmarked) [Compound 3-18]
Herbicidal effect Cyperus difformis [8]: 5 (Herbicidal effect/phytotoxicity was 90% or greater)
Herbicidal effect Echinochloa oryzicola [9]: 5 (Herbicidal effect/phytotoxicity was 90% or greater)
Herbicidal effect Eleocharis acicularis [10]: 5 (Herbicidal effect/phytotoxicity was 90% or greater)
Herbicidal effect Monochoria vaginalis [11]: 5 (Herbicidal effect/phytotoxicity was 90% or greater)
Herbicidal effect Scirpus juncoides [12]: 5 (Herbicidal effect/phytotoxicity was 90% or greater)
Herbicidal effect Broadleaf weed [13]: 5 (Herbicidal effect/phytotoxicity was 90% or greater)
Herbicidal effect Amaranthus viridis [1]: 5 (Herbicidal effect/phytotoxicity was 90% or greater)
Herbicidal effect Chenopodium album [2]: 5 (Herbicidal effect/phytotoxicity was 90% or greater)
Phytotoxicity Corn (corn [3]): 0 (Herbicidal effect/phytotoxicity was 0% to 10%)

C#CCOc1cc(-c2c(Cl)n3n(c2=O)CCCC3)c(F)cc1[N+](=O)[O-] [Example 1-418]
Herbicidal effect Amaranthus viridis [1]: 5 (Herbicidal effect/phytotoxicity was 90% or greater)
Herbicidal effect Chenopodium album [2]: 5 (Herbicidal effect/phytotoxicity was 90% or greater)
Phytotoxicity Corn (corn [3]): 0 (Herbicidal effect/phytotoxicity was 0% to 10%)

CS(=O)(=O)N(c1cc(-c2c(Cl)n3n(c2=O)CCCC3)c(F)cc1Cl)S(C)(=O)=O [Example 5-71]
Herbicidal effect Amaranthus viridis [1]: 5 (Herbicidal effect/phytotoxicity was 90% or greater)
Herbicidal effect Chenopodium album [2]: 5 (Herbicidal effect/phytotoxicity was 90% or greater)
Phytotoxicity Corn (corn [3]): 0 (Herbicidal effect/phytotoxicity was 0% to 10%)
Herbicidal effect Abutilon theophrast [4]: 5 (Herbicidal effect/phytotoxicity was 90% or greater)
Herbicidal effect Amaranthus viridis [5]: 5 (Herbicidal effect/phytotoxicity was 90% or greater)
Herbicidal effect Chenopodium album [6]: 5 (Herbicidal effect/phytotoxicity was 90% or greater)
Phytotoxicity Corn (corn [7]): 0 (Herbicidal effect/phytotoxicity was 0% to 10%)

COc1cc(-c2c(Cl)n3n(c2=O)CCOCC3)c(Cl)cc1Cl [Example 1-296]
Herbicidal effect Cyperus difformis [8]: 5 (Herbicidal effect/phytotoxicity was 90% or greater)
Herbicidal effect Echinochloa oryzicola [9]: 5 (Herbicidal effect/phytotoxicity was 90% or greater)
Herbicidal effect Eleocharis acicularis [10]: 5 (Herbicidal effect/phytotoxicity was 90% or greater)
Herbicidal effect Monochoria vaginalis [11]: 5 (Herbicidal effect/phytotoxicity was 90% or greater)
Herbicidal effect Scirpus juncoides [12]: 5 (Herbicidal effect/phytotoxicity was 90% or greater)
Herbicidal effect Broadleaf weed [13]: 5 (Herbicidal effect/phytotoxicity was 90% or greater)
Herbicidal effect Amaranthus viridis [1]: 5 (Herbicidal effect/phytotoxicity was 90% or greater)
Herbicidal effect Chenopodium album [2]: 5 (Herbicidal effect/phytotoxicity was 90% or greater)
Phytotoxicity Corn (corn [3]): 0 (Herbicidal effect/phytotoxicity was 0% to 10%)

COc1cc(-c2c(Cl)n3n(c2=O)CCOCC3)c(F)cc1F [Example 1-89]
Herbicidal effect Cyperus difformis [8]: 5 (Herbicidal effect/phytotoxicity was 90% or greater)
Herbicidal effect Echinochloa oryzicola [9]: 5 (Herbicidal effect/phytotoxicity was 90% or greater)
Herbicidal effect Eleocharis acicularis [10]: 5 (Herbicidal effect/phytotoxicity was 90% or greater)
Herbicidal effect Monochoria vaginalis [11]: 5 (Herbicidal effect/phytotoxicity was 90% or greater)
Herbicidal effect Scirpus juncoides [12]: 5 (Herbicidal effect/phytotoxicity was 90% or greater)
Herbicidal effect Broadleaf weed [13]: 5 (Herbicidal effect/phytotoxicity was 90% or greater)
Herbicidal effect Amaranthus viridis [1]: 5 (Herbicidal effect/phytotoxicity was 90% or greater)
Herbicidal effect Chenopodium album [2]: 5 (Herbicidal effect/phytotoxicity was 90% or greater)
Phytotoxicity Corn (corn [3]): 0 (Herbicidal effect/phytotoxicity was 0% to 10%)

O=c1c(-c2cc(NS(=O)(=O)C3CC3)c(Cl)cc2F)c(Cl)n2n1CCCC2 [Example 5-58]
Herbicidal effect Amaranthus viridis [1]: 5 (Herbicidal effect/phytotoxicity was 90% or greater)
Herbicidal effect Chenopodium album [2]: 5 (Herbicidal effect/phytotoxicity was 90% or greater)
Phytotoxicity Corn (corn [3]): 0 (Herbicidal effect/phytotoxicity was 0% to 10%)
Herbicidal effect Abutilon theophrast [4]: 5 (Herbicidal effect/phytotoxicity was 90% or greater)
Herbicidal effect Amaranthus viridis [5]: 5 (Herbicidal effect/phytotoxicity was 90% or greater)
Herbicidal effect Chenopodium album [6]: 5 (Herbicidal effect/phytotoxicity was 90% or greater)
Phytotoxicity Corn (corn [7]): 0 (Herbicidal effect/phytotoxicity was 0% to 10%)

C#CCOc1cc(-c2c(Cl)n3n(c2=O)CCCCC3)c(F)cc1Cl [Example 1-239]
Herbicidal effect Amaranthus viridis [1]: 5 (Herbicidal effect/phytotoxicity was 90% or greater)
Herbicidal effect Chenopodium album [2]: 5 (Herbicidal effect/phytotoxicity was 90% or greater)
Phytotoxicity Corn (corn [3]): 0 (Herbicidal effect/phytotoxicity was 0% to 10%)
Herbicidal effect Abutilon theophrast [4]: 5 (Herbicidal effect/phytotoxicity was 90% or greater)
Herbicidal effect Amaranthus viridis [5]: 5 (Herbicidal effect/phytotoxicity was 90% or greater)
Herbicidal effect Chenopodium album [6]: 5 (Herbicidal effect/phytotoxicity was 90% or greater)
Phytotoxicity Corn (corn [7]): 2 (Herbicidal effect/phytotoxicity was 30% to 50%)

O=c1c(-c2cc(NS(=O)(=O)CCl)c(Cl)cc2F)c(Cl)n2n1CCOCC2 [Example 5-49]
Herbicidal effect Amaranthus viridis [1]: 5 (Herbicidal effect/phytotoxicity was 90% or greater)
Herbicidal effect Chenopodium album [2]: 5 (Herbicidal effect/phytotoxicity was 90% or greater)
Phytotoxicity Corn (corn [3]): 0 (Herbicidal effect/phytotoxicity was 0% to 10%)
Herbicidal effect Abutilon theophrast [4]: 5 (Herbicidal effect/phytotoxicity was 90% or greater)
Herbicidal effect Amaranthus viridis [5]: 5 (Herbicidal effect/phytotoxicity was 90% or greater)
Herbicidal effect Chenopodium album [6]: 5 (Herbicidal effect/phytotoxicity was 90% or greater)
Phytotoxicity Corn (corn [7]): 1 (Herbicidal effect/phytotoxicity was 10% to 30%)

Reference: US9580444B2, “Polycyclic pyrazolinone derivative and herbicide comprising same as effective component thereof” (priority 2013, dated 2017)
